# Assay results reported in US8222300B2, “Methods of treating parkinson's disease using halogenated volatile compounds” (Mouse Specifics, Inc., priority 2007, dated 2012).
# System: adult female CD-1 mice
# Type: in vivo
# Protocol: Isoflurane is a halogenated inhalation anesthetic and is routinely used in laboratory animals for its anesthetic properties. In this experiment, posture and gait in mice after brief isoflurane anesthesia was investigated.
# Ventral plane videography was used to image 4 adult female CD-1 mice walking 25 cm/s on a transparent treadmill belt just prior to 5 minutes of isoflurane (2.5% isoflurane final concentration in 100% oxygen) anesthesia. Gait analysis was again performed at 25 cm/s 1, 15, 30 and 60 minutes after the animals regained their righting reflex. Mice were placed in a chamber and delivered the isoflurane via a system which vaporized the isoflurane and mixed it with the oxygen using an anesthesia system (EZ Anesthesia™, Euthanex).
# When the mice first emerged from the anesthesia (animals were moved from an anesthesia box to room air, including oxygen and CO2), they were groggy for about 2-40 seconds. Following the brief groggy period, a supranormal function became apparent as their gait (including stride length, stance width, and swing duration) was improved relative to prior to the administration of the isoflurane.
# [1] = following cessation of anesthesia
structure (smiles),measurement,setting,value
"FC(F)OC(Cl)C(F)(F)F (stereo not shown) [isoflurane, 2-chloro-2-(difluoromethoxy)-1,1,1-trifluoro-ethane]",Increase of swing duration compared to baseline,1 minute after recovery,~50%
same,Stride length,"1 minute after recovery from 5 minutes of 2.5% isoflurane in 100% oxygen, treadmill 25 cm/s, baseline 6.3±0.1 cm, P<0.05",7.6±0.2 cm
same,Stance width variability,"1 minute after recovery from isoflurane, versus baseline",lower
same,Swing duration,"1 minute after recovery, baseline 77±3 ms, P<0.05",103 ± 3 ms
same,Propulsion duration of the hind limbs,"1 minute after recovery, baseline 128±5 ms, P<0.05",167 ± 6 ms
same,Stepping frequency,"1 minute after recovery, treadmill 25 cm/s, baseline 4.1±0.1 Hz, P<0.05",3.3±0.1 Hz
same,Persistence of some supranormal gait characteristics,[1],~30 min
same,Time for all gait metrics to return to baseline,[1],≤ 60 min
same,Duration of groggy period on emergence from anesthesia,"mouse, in vivo",2 to 40 s
same,Increase in stride length,some mice emerging from isoflurane anesthesia,about 25%
